Measurements as given in US8075777B2, “Process for the separation of diastereomers” (E. I. du Pont de Nemours and Company, priority 2007, dated 2011).

Tests used:
[1] = Cloud-point measurements / LCST of HFC-4310mee threo isomers plus ionic liquids; assay type: physicochemical
Text: Starting at ambient temperature of about 293 K, where two liquid phases existed, the temperature was lowered (20 K/h) with manual mixing in a constant temperature bath (Tamson Instruments, TV4000LT, Zoetermeer, Netherlands) until only a single phase existed. The bath temperature was calibrated with the NIST traceable SPRT mentioned previously. Achieving a single phase with the mixtures prepared using [emim][BF4] involved going to a lower temperature than was required to achieve a single phase with the mixtures prepared using [bmim][PF6] and [bmim][BF4]. In addition, the rate of decrease in temperature had to be decreased from 20 to 5 K/h with vigorous manual mixing to prevent the ionic-liquid rich phase from solidifying. Sufficient time with vigorous mixing allowed for mixtures containing 70 mole % and higher threo-H and threo-D isomers with [emim][BF4] to become a single phase at a temperature of 240 K. Once the samples were single phase the temperature was slowly raised 2 K/h until a cloud layer became visible inside the tube. The temperature was recorded for each sample when the cloud layer formed and the temperature was slowly raised until all samples had reached the cloud point.

[2] = assay type: physicochemical
Text: The separation of the erythro or threo diastereomer from a mixture thereof in HFC-4310mee involves one of the diastereomers being soluble to a greater extent in at least one ionic liquid than the other diastereomer is. In order to study this type of behavior, liquid-liquid equilibrium (LLE) and cloud point measurements on samples of HFC-4310mee were made as described in Examples 1 to 4. […]
Initially, the samples were mixed at room temperature (293.2 K) by vigorously shaking the sample containers. […] The water bath was stirred with an agitator (Arrow Engineering Co., Inc. model 1750, Hillside, N.J.) and the temperature measured with a thermocouple (Fluke Corporation, model 5211 thermometer, Everett, Wash.). The Fluke thermometer was calibrated using a standard platinum resistance thermometer (SPRT model 5699, Hart Scientific, American Fork, Utah, range 73 to 933 K) and readout (Blackstack model 1560 with SPRT module 2560). […]
The water bath temperature was initially set at about 283 K, and the sample containers were rocked back and forth. […] The mixing and measurement procedure was repeated each day and the heights plotted as a function of time until no further change in the heights was detected. […]

[3] = Single stage liquid-liquid extraction of HFC-4310mee with [bmim][BF4] in separatory funnel, GC analysis of upper phase; assay type: physicochemical; settings: 7.2 g HFC-4310mee feed (88.8/11.2 vol % threo/erythro) mixed with 15.1 g [bmim][BF4]
Method: To evaluate this characterization, a sample of HFC-4310mee was analyzed by gas chromatography and found to contain 88.8 vol % HFC-4310mee-threo and 11.2 vol % HFC-4310mee-erythro diastereomers. A 7.2 gram sample of HFC-4310mee (i.e., the feed) was mixed with 15.1 grams of [bmim][BF4] (i.e., the extractant) in a separator funnel and vigorously mixed and then allowed to separate into two phases. […] [BF4]. The lower phase was separated from the top phase by opening the stopcock valve on the bottom of the separatory funnel and decanting off the lower phase. The remaining upper phase was analyzed by gas chromatography. The upper phase contained 91.8 vol % HFC-4310mee-threo and 8.2 vol % HFC-4310mee-erythro, which is in accordance with the ternary diagrams.

[4] = NRTL activity model correlation of LLE data (binary interaction parameters, equation 5); assay type: physicochemical; design: key to τ12^(0) / τ21^(0): constant term in τij = τij(0) + τij(1)/T + τij(2)T (NRTL, α=0.2); settings: non-deuterated, α=0.2
Text: Observed LLE data have been correlated with the NRTL (non-random two liquid) solution model as described in Shiflett, M. B. and Yokozeki, A. (Vapor-liquid-liquid equilibria of pentafluoroethane and ionic liquid [bmim][PF6] mixtures studied with the volumetric method, J. Phys. Chem. B (2006) 110:14436-14443); and in Shiflett, M. B. and Yokozeki, A. (Vapor-liquid-liquid equilibria of hydrofluorocarbons+1-butyl-3-methylimidazolium hexafluorophosphate, J. Chem. & Eng. Data (2006) 51:1931-1939).
The binary activity coefficients of the NRTL are given by:
[formula] where G12≡exp(−ατ12), and G21≡exp(−ατ21) (3)
α=0.2 (assumed to be a constant of 0.2 in this work).
xi=mole fraction of the i-th species.
The temperature-dependent binary interaction parameter (τij) is modeled here by a three term empirical equation: τ12=τ12^(0)+τ12^(1)/T+τ12^(2)T, and τ21=τ21^(0)+τ21^(1)/T+τ21^(2)T (5)
The binary LLE (L1 for liquid 1 and L2 for liquid 2) are mathematically described by the following equilibrium condition: γi^L1xi^L1=γi^L2xi^L2 (6) Thus, the two adjustable parameters τ12 and τ21 at a given T can be determined from one set of LLE experimental (volumetric method) data, using eq 6 (two nonlinearly coupled equations). We obtained several sets of such LLE data and can obtain τ12 and τ21 at respective T. Then, the empirical parameters in eq 5 were determined and are shown in Example 5, Table 5, where results for only the non-deuterated isomers with ionic liquids are given, since results for the deuterated isomer cases are similar to those in Table 5.

Structure (SMILES) | Solubility in the present ionic liquids compared with the erythro-D and erythro-H isomers [2] | Content in upper phase (extract) by gas chromatography [3] | τ12^(0) ([4]; isomer (1)/[bmim][BF4] (2)) | τ12^(1)/K ([4]; isomer (1)/[bmim][BF4] (2)) | τ12^(2)/K^−1 ([4]; isomer (1)/[bmim][BF4] (2)) | τ21^(0) ([4]; isomer (1)/[bmim][BF4] (2)) | τ21^(1)/K ([4]; isomer (1)/[bmim][BF4] (2)) | τ21^(2)/K^−1 ([4]; isomer (1)/[bmim][BF4] (2)) | τ12^(0) ([4]; isomer (1)/[bmim][PF6] (2)) | τ12^(1)/K ([4]; isomer (1)/[bmim][PF6] (2)) | τ12^(2)/K^−1 ([4]; isomer (1)/[bmim][PF6] (2)) | τ21^(0) ([4]; isomer (1)/[bmim][PF6] (2)) | τ21^(1)/K ([4]; isomer (1)/[bmim][PF6] (2)) | τ21^(2)/K^−1 ([4]; isomer (1)/[bmim][PF6] (2)) | τ12^(0) ([4]; isomer (1)/[emim][BF4] (2)) | τ12^(1)/K ([4]; isomer (1)/[emim][BF4] (2)) | τ12^(2)/K^−1 ([4]; isomer (1)/[emim][BF4] (2)) | τ21^(0) ([4]; isomer (1)/[emim][BF4] (2)) | τ21^(1)/K ([4]; isomer (1)/[emim][BF4] (2)) | τ21^(2)/K^−1 ([4]; isomer (1)/[emim][BF4] (2)) | further results
[2H]C(F)(C(F)(F)F)C([2H])(F)C(F)(F)C(F)(F)F (stereo not drawn) [HFC-4310mee Threo-D] | more soluble | – | – | – | – | – | – | – | – | – | – | – | – | – | – | – | – | – | – | – | Cloud point T/K ([1]; [bmim][BF4], 59.9 ± 0.5 mol % HFC): 311 ± 1 K; Cloud point T/K ([1]; [bmim][BF4], 69.4 ± 0.5 mol % HFC): 310 ± 1 K; Cloud point T/K ([1]; [bmim][BF4], 80.1 ± 0.5 mol % HFC): 309 ± 1 K; Cloud point T/K ([1]; [bmim][BF4], 89.3 ± 0.5 mol % HFC): 310 ± 1 K; Cloud point T/K ([1]; [bmim][PF6], 40.0 ± 0.5 mol % HFC): 272 ± 1 K; Cloud point T/K ([1]; [bmim][PF6], 50.0 ± 0.5 mol % HFC): 271 ± 1 K; Cloud point T/K ([1]; [bmim][PF6], 59.7 ± 0.5 mol % HFC): 271 ± 1 K; Cloud point T/K ([1]; [bmim][PF6], 69.8 ± 0.5 mol % HFC): 267 ± 1 K; Cloud point T/K ([1]; [bmim][PF6], 79.7 ± 0.5 mol % HFC): 267 ± 1 K; Cloud point T/K ([1]; [bmim][PF6], 88.5 ± 0.5 mol % HFC): 272 ± 1 K; Cloud point T/K ([1]; [emim][BF4], 69.6 ± 0.5 mol % HFC): 252 ± 3 K; Cloud point T/K ([1]; [emim][BF4], 80.1 ± 0.5 mol % HFC): 261 ± 2 K; Cloud point T/K ([1]; [emim][BF4], 89.8 ± 0.5 mol % HFC): 273 ± 1 K
F[C@H]([C@@H](F)C(F)(F)C(F)(F)F)C(F)(F)F [HFC-4310mee Threo-H, threo-2,3-dihydrodecafluoropentanes] | more soluble | 91.8 vol % | 91.1575 | −1463.8 K | −0.1288 K^−1 | 81.6624 | −1506.8 K | −0.1092 K^−1 | 145.421 | −22306.3 K | −0.2229 K^−1 | −37.7767 | 5492.1 K | 0.06485 K^−1 | 50.3746 | −7994.5 K | −0.06965 K^−1 | −7.2227 | 1138.3 K | 0.0158 K^−1 | LCST (lower critical solution temperature) ([1]; [bmim][BF4] system, at about 75 mole %): 307-309 K; Cloud point T/K ([1]; [bmim][BF4], 50.0 ± 0.5 mol % HFC): 311 ± 1 K; Cloud point T/K ([1]; [bmim][BF4], 59.1 ± 0.5 mol % HFC): 309 ± 1 K; Cloud point T/K ([1]; [bmim][BF4], 69.8 ± 0.5 mol % HFC): 308 ± 1 K; Cloud point T/K ([1]; [bmim][BF4], 79.5 ± 0.5 mol % HFC): 307 ± 1 K; Cloud point T/K ([1]; [bmim][BF4], 91.0 ± 0.5 mol % HFC): 308 ± 1 K; LCST (lower critical solution temperature) ([1]; [bmim][PF6] system, at about 70 (threo-isomer) mole %): 265-267 K; Cloud point T/K ([1]; [bmim][PF6], 40.6 ± 0.5 mol % HFC): 270 ± 1 K; Cloud point T/K ([1]; [bmim][PF6], 50.8 ± 0.5 mol % HFC): 269 ± 1 K; Cloud point T/K ([1]; [bmim][PF6], 60.4 ± 0.5 mol % HFC): 268 ± 1 K; Cloud point T/K ([1]; [bmim][PF6], 69.7 ± 0.5 mol % HFC): 265 ± 1 K; Cloud point T/K ([1]; [bmim][PF6], 80.0 ± 0.5 mol % HFC): 264 ± 1 K; Cloud point T/K ([1]; [bmim][PF6], 90.0 ± 0.5 mol % HFC): 276 ± 1 K; LCST (lower critical solution temperature) ([1]; [emim][BF4] system, at near 50 mole %): about 250 K; Cloud point T/K ([1]; [emim][BF4], 69.8 ± 0.5 mol % HFC): 250 ± 3 K; Cloud point T/K ([1]; [emim][BF4], 80.0 ± 0.5 mol % HFC): 260 ± 2 K; Cloud point T/K ([1]; [emim][BF4], 90.1 ± 0.5 mol % HFC): 268 ± 1 K
F[C@H]([C@H](F)C(F)(F)C(F)(F)F)C(F)(F)F [HFC-4310mee Erythro-H, erythro-2,3-dihydrodecafluoropentanes] | – | 8.2 vol % | −1.1221 | 1492.7 K | 0 K^−1 | 18.7323 | −3018.8 K | −0.02457 K^−1 | −5.2583 | 2803.2 K | 0 K^−1 | 2.97 | −584.1 K | 0 K^−1 | 25.6965 | −3500.0 K | −0.03688 K^−1 | 72.2927 | −10850.0 K | −0.1125 K^−1 | –
